From patent publication US20220054540A1, “Ferric Carboxymaltose In The Treatment Of Heart Failure And In The Treatment Of Congestion In Heart Failure” (Vifor (International) AG, priority 2018, published 2022)

Experiments:
[1] = test system: ambulatory patients with NYHA class II or III CHF and iron deficiency; details: after 24 weeks of treatment, IV FCM compared to saline; cited from earlier work
[2] = publications, e.g. Qunibi et al. 2011; cited from earlier work
[3] = test system: ambulatory patients with NYHA class II or III CHF and iron deficiency; assay: FAIR-HF plasma volume status (PVS) substudy: post-hoc analysis of calculated PVS and clinical congestion, IV FCM vs placebo; format: in vivo, human (patients); details: for change from baseline in Hct / change from baseline in PVS / change from baseline in weight: mean±SD; for change from baseline in Hct: significant increase compared to placebo
Method: FAIR-HF is a multi-centre, randomized, double-blind trial including 459 ambulatory patients with NYHA class II or III CHF, a left ventricular ejection fraction (LVEF) ≤40% (NYHA II) or ≤45% (NYHA III), iron deficiency (ID) as defined by a ferritin <100 ug/l or 100 to 299 ug/l with a transferrin saturation (TSAT)<20%, and a hemoglobin (Hb) level between 9.5 and 13.5 g/dl. Patients were randomized in a 2:1 ratio to intravenous (IV) iron as ferric carboxymaltose (FCM; Ferinject®) or IV placebo (saline) weekly until iron repletion (correction phase), then 4 weekly until week 24 (maintenance phase). FCM was administered in doses of 200 mg (4 mL) weekly up to iron repletion (correction phase of variable duration depending on individual iron deficit). The calculated dose was rounded to the next 100 mg iron, i.e. the final dose may be 100 mg iron depending on the individual iron deficit. After the correction phase, FCM was administered monthly in doses of 200 mg until the 24th week (maintenance phase).
In the placebo group, during the correction phase, patients will receive the number of normal saline injections (4 mL weekly) corresponding to the calculated total iron dose needed according to the individual iron deficit. During the maintenance phase, placebo patients will receive 4 mL normal saline monthly. Regular assessments were done at weeks 4, 12, and 24.
The hematocrit value (Hct or Ht) and weight at randomization were used for plasma volume status (PVS) calculations and were available in 436 (95%) patients whose data were therefore used in this post-hoc analysis.
Actual plasma volume (PV) was calculated with the following equation that was derived by curve-fitting techniques using subjects' Hct and weight compared with PV values measured with gold standard radioisotope assays:
actual PV=([1−Hct]×[a+(b×weight [kg])])
where Hct is a fraction and a=1530 in males and 864 in females, and b=41 in males and 47.9 in females.
Ideal PV was calculated from the following well established formula:
where c=39 in males and 40 in females
Relative PVS, an index of the degree to which patients have deviated from their ideal PV, was subsequently calculated from the following equation:
PVS=([actual PV−ideal PV]/ideal PV)×100%
Patients were weighed and examined for signs and symptoms of congestion at randomization and at weeks 4, 12 and 24. The presence or absence of peripheral edema, pulmonary congestion (crackles, rales), and an S3 gallop (third heart sound) were recorded, as was the actual jugular venous pressure (JVP).
Data are presented as mean±SD, frequencies (%), or medians (interquartile range [IQR]). Intergroup comparisons were made using a Kruskall-Wallis analysis of variance (ANOVA), analysis of covariance (ANCOVA), Student t-test, Pearson χ2 test, or a Mann Whitney U-test as appropriate. Associations between variables were determined using logistic regression. A P-value <0.10 was used to enter and retain covariates into stepwise multivariable regression models.
To assess the impact of treatment assignment on PVS, comparisons of changes in PVS from baseline at 4, 12, and 24 weeks between the placebo and FCM group were evaluated by comparing the least square means at each visit from a repeated-measures model using an unstructured covariance structure and adjusting for the continuous baseline value and a visit x drug interaction. Changes over time for other variables were similarly determined.

[4] = cited from earlier work
[5] = cited from earlier work; remark: listed apart in the source
[6] = week 4, significant reduction compared to placebo

polynuclear iron(III)-oxyhydroxide carboxypolymaltose (carboxymaltodextrin) [FCM]
6 minute walking distance (6MWD) [1]: significant improvements
NYHA class [1]: significant improvements
Patient Global Assessment (PGA) [1]: significant improvements
peripheral edema as adverse event [2]: one of the most commonly occurring adverse events
peripheral edema ([3]; FCM treatment compared to placebo (FIG. 2d)): improvement in peripheral edema
improvement in pulmonary edema ([3]; FCM treatment vs placebo, P=0.35): not evident
improvement in jugular venous distension ([3]; FCM treatment vs placebo, P=0.54): not evident
improvement in presence of an S3 gallop rhythm ([3]; FCM treatment vs placebo, P=1.00): not evident
time of maximal treatment effect on PVS ([3]; FCM vs placebo): 12 week
change from baseline in Hct ([3]; week 4): 2 ± 4%
change from baseline in PVS [3, 6]: −2.5±5.9%
change from baseline in weight [3, 6]: -0.2 ± 2.4 kg
change from baseline in weight ([3]; week 12, not significant compared to placebo): 0.2 ± 3.0 kg
change from baseline in Hct ([3]; week 12): 3 ± 4%
change from baseline in PVS ([3]; week 12, significant reduction compared to placebo): −3.9±6.8%
change from baseline in weight ([3]; week 24, not significant compared to placebo): 0.3 ± 3.2 kg
change from baseline in Hct ([3]; week 24): 3 ± 5%
change from baseline in PVS ([3]; week 24, significant reduction compared to placebo): −4.1±7.4%
dextran cross-reactivity ([4]; in vivo): no dextran cross-reactivity
tolerability of rapid infusion ([4]; up to 1000 mg of elemental iron over 15 min, intravenous): well tolerated
stability of the iron-carbohydrate complex ([5]; compared with ferric gluconate and iron sucrose): more stable than ferric gluconate or iron sucrose
pH of the complex ([5]; nearly neutral): 5.0-7.0
